Results as given in patent US11053251B2, “GPR35 modulators” (Prometheus Biosciences, Inc., priority 2019, dated 2021).

How the values were obtained:
Human GPR35 [1] = target: Human GPR35 (Homo sapiens, UniProt Q9HC97); test: Beta-Arrestin Assay (Tango U2OS cells, LiveBLAzer-FRET B/G); type: cell-based; settings: Human GPR35 expressing Tango U2OS cells, 5 hours treatment
Method: Human GPR35 expressing Tango U2OS cells were plated in 384-well format in clear bottom plates at a cell density of 10,000 cells/well and allowed to grow overnight. The next day, cells were treated with serially diluted test compounds for 5 hours. LiveBLAzer-FRET B/G (CCF4-AM) detection reagents were then added and cells were allowed to incubate for 2 hours before reading plates on a BioTek Cytation 5 plate reader. Zaprinast was used as a positive control for dose-response curves. In order to determine EC50 values, data were fit to a four-parameter dose-response curve.

Human GPR35 [2] = target: Human GPR35 (Homo sapiens, UniProt Q9HC97, S294R); test: Alternative Beta-Arrestin Assay (JumpIn 294R Tango U2OS cells, LiveBLAzer-FRET B/G); type: cell-based; settings: for EC50: Human GPR35 expressing JumpIn 294R Tango U2OS cells, 5 hours treatment
Sequence of Human GPR35 (Homo sapiens, UniProt Q9HC97, S294R) (Q9HC97 whole entry S294R): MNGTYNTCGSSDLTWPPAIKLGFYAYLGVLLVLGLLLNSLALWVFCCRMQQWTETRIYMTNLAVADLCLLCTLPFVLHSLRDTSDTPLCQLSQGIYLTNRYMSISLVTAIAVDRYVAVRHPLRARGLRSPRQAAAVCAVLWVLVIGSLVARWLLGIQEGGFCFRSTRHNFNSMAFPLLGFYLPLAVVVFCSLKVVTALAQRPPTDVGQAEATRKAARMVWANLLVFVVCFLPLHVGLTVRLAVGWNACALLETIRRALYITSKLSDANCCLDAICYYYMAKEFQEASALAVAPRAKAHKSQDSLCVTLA
Summary of the method: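 Beta-arrestin recruitment measured as FRET ratio change using CCF4-AM loading for 2 h, following 5-hour compound treatment of GPR35 (S294R) JumpIn Tango U2OS cells. Zaprinast served as positive control; EC50 values from four-parameter dose-response fits.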

Sequence of Human GPR35 (Homo sapiens, UniProt Q9HC97) (Q9HC97 whole entry): as the sequence (Q9HC97 whole entry S294R) above, with R294S counted along it

| EC50 (Human GPR35 [1]) | EC50 (Human GPR35 [2]) | % inhibition at 50 μM (Human GPR35 [2]; at 50 μM, Table 2) | SMILES |
| --- | --- | --- | --- |
| ≤ 10 µM | ≤ 10 µM |  | CCOc1cc(C(=O)O)ccc1-c1nc2[nH]nnc2c(=O)[nH]1 [Compound 132, 3-Ethoxy-4-(7-oxo-6,7-dihydro-3H-[1,2,3]triazolo[4,5-d]pyrimidin-5-yl)benzoic acid] |
| ≤ 10 µM | ≤ 10 µM |  | CCOc1cc(-c2cc[nH]n2)ccc1-c1nc2nn[nH]c2c(=O)[nH]1 [Compound 131, 5-(2-Ethoxy-4-(1H-pyrazol-3-yl)phenyl)-1,6-dihydro-7H-[1,2,3]triazolo[4,5-d]pyrimidin-7-one] |
| ≤ 10 µM | ≤ 10 µM |  | CCOc1cc(CC(=O)O)ccc1-c1nc2[nH]nnc2c(=O)[nH]1 [Compound 146, 2-(3-ethoxy-4-(7-oxo-6,7-dihydro-3H-[1,2,3]triazolo[4,5-d]pyrimidin-5-yl)phenyl)acetic acid] |
| ≤ 10 µM | ≤ 10 µM |  | CCOc1cc(C(=O)N2CC[C@@H](C(=O)O)C2)ccc1-c1nc2[nH]nnc2c(=O)[nH]1 [Compound 161, (R)-1-(3-ethoxy-4-(7-oxo-6,7-dihydro-3H-[1,2,3]triazolo[4,5-d]pyrimidin-5-yl)benzoyl)pyrrolidine-3-carboxylic acid] |
| ≤ 10 µM | 10 to 50 µM |  | CCOc1cc(C(=O)N2CCCC2)ccc1-c1nc2[nH]nnc2c(=O)[nH]1 [Compound 133, 5-(2-Ethoxy-4-(pyrrolidine-1-carbonyl)phenyl)-3,6-dihydro-7H-[1,2,3]triazolo[4,5-d]pyrimidin-7-one] |
| ≤ 10 µM | ≤ 10 µM |  | CCOc1cc(-c2ccc(N)c(C(=O)O)c2)ccc1-c1nc2[nH]nnc2c(=O)[nH]1 [Compound 181, 4-amino-3′-ethoxy-4′-(7-oxo-6,7-dihydro-3H-[1,2,3]triazolo[4,5-d]pyrimidin-5-yl)-[1,1′-biphenyl]-3-carboxylic acid] |
| ≤ 10 µM | ≤ 10 µM |  | CCOc1cc(C(N)=O)ccc1-c1nc2[nH]nnc2c(=O)[nH]1 [Compound 135, 3-Ethoxy-4-(7-oxo-6,7-dihydro-3H-[1,2,3]triazolo[4,5-d]pyrimidin-5-yl)benzamide] |
| ≤ 10 µM | 10 to 50 µM |  | CCOc1cc(-c2ccccc2C(=O)O)ccc1-c1nc2[nH]nnc2c(=O)[nH]1 [Compound 109, 3′-Ethoxy-4′-(7-oxo-6,7-dihydro-3H-[1,2,3]triazolo[4,5-d]pyrimidin-5-yl)-[1,1′-biphenyl]-2-carboxylic acid] |
| ≤ 10 µM | ≤ 10 µM |  | CCOc1cc(-c2cc(N)cc(C(=O)O)c2)ccc1-c1nc2[nH]nnc2c(=O)[nH]1 [Compound 123, 5-amino-3′-ethoxy-4′-(7-oxo-6,7-dihydro-3H-[1,2,3]triazolo[4,5-d]pyrimidin-5-yl)-[1,1′-biphenyl]-3-carboxylic acid] |
| ≤ 10 µM | ≤ 10 µM |  | CCOc1cc(C(=O)Nc2ccccn2)ccc1-c1nc2[nH]nnc2c(=O)[nH]1 [Compound 140, 3-ethoxy-4-(7-oxo-6,7-dihydro-3H-[1,2,3]triazolo[4,5-d]pyrimidin-5-yl)-N-(pyridin-2-yl)benzamide] |
|  | ≤ 10 µM |  | CCOc1cc(-c2ccc(C(=O)OCc3oc(=O)oc3C)cc2)ccc1-c1nc2nn[nH]c2c(=O)[nH]1 [Compound 193, (5-Methyl-2-oxo-1,3-dioxol-4-yl)methyl 3′-ethoxy-4′-(7-oxo-6,7-dihydro-3H-[1,2,3]triazolo[4,5-d]pyrimidin-5-yl)-[1,1′-biphenyl]-4-carboxylate] |
|  | ≤ 10 µM |  | CCOc1cc(-c2ccc(C)c(CCC(=O)O)c2)ccc1-c1nc2[nH]nnc2c(=O)[nH]1 [Compound 321, 3-(3′-ethoxy-4-methyl-4′-(7-oxo-6,7-dihydro-3H-[1,2,3]triazolo[4,5-d]pyrimidin-5-yl)-[1,1′-biphenyl]-3-yl)propanoic acid] |
|  | ≤ 10 µM |  | CCOc1cc(-c2ccc3c(c2)CC(C)(C)C(=O)O3)ccc1-c1nc2[nH]nnc2c(=O)[nH]1 [Compound 305, 5-(4-(3,3-dimethyl-2-oxochroman-6-yl)-2-ethoxyphenyl)-3,6-dihydro-7H-[1,2,3]triazolo[4,5-d]pyrimidin-7-one] |
|  | ≤ 10 µM |  | CCOc1cc(-c2cccc(C[C@H](OC)C(=O)O)c2)ccc1-c1nc2[nH]nnc2c(=O)[nH]1 [Compound 283, (S)-3-(3′-ethoxy-4′-(7-oxo-6,7-dihydro-3H-[1,2,3]triazolo[4,5-d]pyrimidin-5-yl)-[1,1′-biphenyl]-3-yl)-2-methoxypropanoic acid] |
|  | ≤ 10 µM |  | CCOc1cc(-c2cccc(C(C)C(=O)O)c2)ccc1-c1nc2[nH]nnc2c(=O)[nH]1 (centres unmarked) [Compound 297, 2-(3′-ethoxy-4′-(7-oxo-6,7-dihydro-3H-[1,2,3]triazolo[4,5-d]pyrimidin-5-yl)-[1,1′-biphenyl]-3-yl)propanoic acid] |
|  | ≤ 10 µM |  | O=C(O)c1cc(-c2ccc(-c3nc4[nH]nnc4c(=O)[nH]3)c(OC3CCCC3)c2)ccc1O [Compound 200, 3′-(Cyclopentyloxy)-4-hydroxy-4′-(7-oxo-6,7-dihydro-3H-[1,2,3]triazolo[4,5-d]pyrimidin-5-yl)-[1,1′-biphenyl]-3-carboxylic acid] |

| EC50 (Human GPR35 [1]) | EC50 (Human GPR35 [2]) | % inhibition at 50 μM (Human GPR35 [2]; at 50 μM, Table 2) | SMILES |
| --- | --- | --- | --- |
|  | ≤ 10 µM |  | CCOc1cc(-c2cccc(CC3(C(=O)O)CC3)c2)ccc1-c1nc2[nH]nnc2c(=O)[nH]1 [Compound 244, 1-((3′-ethoxy-4′-(7-oxo-6,7-dihydro-3H-[1,2,3]triazolo[4,5-d]pyrimidin-5-yl)-[1,1′-biphenyl]-3-yl)methyl)cyclopropane-1-carboxylic acid] |
|  | ≤ 10 µM |  | CCOc1cc(-c2ccc(O)c(CCC(=O)O)c2)ccc1-c1nc2[nH]nnc2c(=O)[nH]1 [Compound 309, 3-(3′-ethoxy-4-hydroxy-4′-(7-oxo-6,7-dihydro-3H-[1,2,3]triazolo[4,5-d]pyrimidin-5-yl)-[1,1′-biphenyl]-3-yl)propanoic acid] |
|  | ≤ 10 µM |  | CCOc1cc(-c2nc(C(=O)O)co2)ccc1-c1nc2[nH]nnc2c(=O)[nH]1 [Compound 188, 2-(3-ethoxy-4-(7-oxo-6,7-dihydro-3H-[1,2,3]triazolo[4,5-d]pyrimidin-5-yl)phenyl)oxazole-4-carboxylic acid] |
|  | ≤ 10 µM |  | Nc1cc(-c2nc3[nH]nnc3c(=O)[nH]2)ccc1-c1ccc(C(=O)O)cc1 [Compound 287, 2′-amino-4′-(7-oxo-6,7-dihydro-3H-[1,2,3]triazolo[4,5-d]pyrimidin-5-yl)-[1,1′-biphenyl]-4-carboxylic acid] |
|  |  | 57% inhibition at | CCOc1cc(-c2ccc(OCc3ccc(OC)cc3)c(NCC(=O)OC(C)(C)C)c2)ccc1-c1nc2[nH]nnc2c(=O)[nH]1 [Compound 221, tert-butyl (3′-ethoxy-4-((4-methoxybenzyl)oxy)-4′-(7-oxo-6,7-dihydro-3H-[1,2,3]triazolo[4,5-d]pyrimidin-5-yl)-[1,1′-biphenyl]-3-yl)glycinate] |
|  | ≤ 10 µM |  | CCOc1cc(-c2cc(F)cc(O[C@@H](C)C(=O)O)c2)ccc1-c1nc2[nH]nnc2c(=O)[nH]1 (single isomer, unassigned) [Compound 263] |
|  | ≤ 10 µM |  | CCOc1cc(-c2cc(C)cc(O[C@@H](C)C(=O)O)c2)ccc1-c1nc2[nH]nnc2c(=O)[nH]1 [Compound 267, (S)-2-((3′-ethoxy-5-methyl-4′-(7-oxo-6,7-dihydro-3H-[1,2,3]triazolo[4,5-d]pyrimidin-5-yl)-[1,1′-biphenyl]-3-yl)oxy)propanoic acid] |
|  | ≤ 10 µM |  | O=C(O)c1ccc(-c2ccc(-c3nc4[nH]nnc4c(=O)[nH]3)c(OC3CCCC3)c2)cc1O [Compound 201, 3′-(Cyclopentyloxy)-3-hydroxy-4′-(7-oxo-6,7-dihydro-3H-[1,2,3]triazolo[4,5-d]pyrimidin-5-yl)-[1,1′-biphenyl]-4-carboxylic acid] |
|  | ≤ 10 µM |  | CCOc1cc(-c2ccc(C(=O)O)o2)ccc1-c1nc2[nH]nnc2c(=O)[nH]1 [Compound 189, 5-(3-ethoxy-4-(7-oxo-6,7-dihydro-3H-[1,2,3]triazolo[4,5-d]pyrimidin-5-yl)phenyl)furan-2-carboxylic acid] |
|  | ≤ 10 µM |  | CCOc1cc(-c2ccc(C(=O)O)c(O)c2)ccc1-c1nc2[nH]nnc2c(=O)[nH]1 [Compound 208, 3′-Ethoxy-3-hydroxy-4′-(7-oxo-6,7-dihydro-3H-[1,2,3]triazolo[4,5-d]pyrimidin-5-yl)-[1,1′-biphenyl]-4-carboxylic acid] |
|  | ≤ 10 µM |  | CCOc1cc(-c2nc3[nH]nnc3c(=O)[nH]2)ccc1-c1ccc(C(=O)O)cc1 [Compound 195, 2′-Ethoxy-4′-(7-oxo-6,7-dihydro-3H-[1,2,3]triazolo[4,5-d]pyrimidin-5-yl)-[1,1′-biphenyl]-4-carboxylic acid] |
|  | ≤ 10 µM |  | CCOc1cc(-c2cccc(NC)c2)ccc1-c1nc2[nH]nnc2c(=O)[nH]1 [Compound 232, 5-(3-Ethoxy-3′-(methylamino)-[1,1′-biphenyl]-4-yl)-3,6-dihydro-7H-[1,2,3]triazolo[4,5-d]pyrimidin-7-one] |
|  | ≤ 10 µM |  | CCOc1cc(-c2cccc(C[C@H](N)C(=O)O)c2)ccc1-c1nc2[nH]nnc2c(=O)[nH]1 [Compound 274, (S)-2-amino-3-(3′-ethoxy-4′-(7-oxo-6,7-dihydro-3H-[1,2,3]triazolo[4,5-d]pyrimidin-5-yl)-[1,1′-biphenyl]-3-yl)propanoic acid] |
|  | ≤ 10 µM |  | CCOc1cc(-c2cccc(N)c2)ccc1-c1nc2[nH]nnc2c(=O)[nH]1 [Compound 197, 5-(3′-Amino-3-ethoxy-[1,1′-biphenyl]-4-yl)-3,6-dihydro-7H-[1,2,3]triazolo[4,5-d]pyrimidin-7-one] |
|  | ≤ 10 µM |  | O=c1[nH]c(-c2ccc(-c3nnn[nH]3)cc2O)nc2[nH]nnc12 [Compound 147, 5-(2-hydroxy-4-(1H-tetrazol-5-yl)phenyl)-3,6-dihydro-7H-[1,2,3]triazolo[4,5-d]pyrimidin-7-one] |
